Assay results: ChEMBL document CHEMBL3286152, “Development of a fluorometric microplate antiadhesion assay using uropathogenic Escherichia coli and human uroepithelial cells” (J Nat Prod, 2014)
Converted amounts (≈) assume the structure as drawn. The source made the active and inactive calls. No cut-off for these calls is given here.

Legend:
[1] = test system: Escherichia coli; assay: Inhibition of BacLight Green labeled Escherichia coli adherence to human UEC after 1 hr by flow cytometry analysis; format: functional, organism-based
[2] = test system: Escherichia coli; assay: Bactericidal activity against BacLight Green labeled Escherichia coli up to 30 ug/ml; format: ADME, organism-based
[3] = test system: Escherichia coli; assay: Inhibition of BacLight Green labeled Escherichia coli adherence to human UEC at 10 ug/ml after 1 hr by scanning electron microscopy analysis; format: functional, organism-based
[4] = test system: Escherichia coli; assay: Induction of morphological changes in BacLight Green labeled Escherichia coli assessed as alteration of fimbriae structure and distribution by fusing fimbriae at 10 ug/ml after 1 hr by transmission electron microscopy analysis; format: functional, organism-based
[5] = test system: Escherichia coli; assay: Inhibition of BacLight Green labeled Escherichia coli adherence to human UEC at 0.1 ug/ml after 1 hr by flow cytometry analysis; format: functional, organism-based
[6] = test system: Escherichia coli; assay: Inhibition of BacLight Green labeled Escherichia coli adherence to human UEC at 1 ug/ml after 1 hr by flow cytometry analysis; format: functional, organism-based
[7] = test system: Escherichia coli; assay: Induction of morphological changes in BacLight Green labeled Escherichia coli assessed as decrease of number of fimbriae at 50 ug/ml after 1 hr by transmission electron microscopy analysis; format: functional, organism-based
[8] = test system: Escherichia coli; assay: Inhibition of BacLight Green labeled Escherichia coli adherence to human UEC at 50 ug/ml after 1 hr by scanning electron microscopy analysis; format: functional, organism-based

SMILES	inhibition [1]	Activity [2]	IC50 [1] [µg/mL]	inhibition [3]	Activity [4]	inhibition [5]	inhibition [6]	Activity [7]	inhibition [8]
O=C(/C=C/c1ccc(O)c(O)c1)O[C@@H]1C[C@](O)(C(=O)O)C[C@@H](O)[C@H]1O [CHLOROGENIC ACID]	inactive	Non-toxic	–	–	–	–	–	–	–
O=c1c(O)c(-c2cc(O)c(O)c(O)c2)oc2cc(O)cc(O)c12 [MYRICETIN]	Dose-dependent effect	Non-toxic	0.88 (≈ 2.77 µM)	Active	Active	Active	–	–	–
Oc1cc(O)c2c(c1)O[C@@]1(c3ccc(O)c(O)c3)Oc3cc(O)c4c(c3[C@@H]2[C@H]1O)O[C@H](c1ccc(O)c(O)c1)[C@H](O)C4 [PROANTHOCYANIDIN A2]	inactive	Non-toxic	–	–	–	–	–	–	–
Oc1cc(O)c2c(c1)O[C@H](c1ccc(O)c(O)c1)[C@H](O)[C@H]2c1c(O)cc(O)c2c1O[C@H](c1ccc(O)c(O)c1)[C@@H](O)C2 [PROCYANIDIN B1]	Dose-dependent effect	Non-toxic	–	–	–	–	Active	–	–
Oc1cc(O)c2c(c1)O[C@H](c1ccc(O)c(O)c1)[C@H](O)[C@H]2c1c(O)cc(O)c2c1O[C@H](c1ccc(O)c(O)c1)[C@H](O)C2 [PROCYANIDIN B2]	Dose-dependent effect	Non-toxic	–	–	–	–	Active	Active	Active
Oc1cc(O)c2c(c1)O[C@H](c1ccc(O)c(O)c1)[C@H](O)[C@H]2c1c(O)cc(O)c2c1O[C@H](c1ccc(O)c(O)c1)[C@H](O)[C@H]2c1c(O)cc(O)c2c1O[C@H](c1ccc(O)c(O)c1)[C@H](O)C2 [PROCYANIDIN C1]	Dose-dependent effect	Non-toxic	–	–	–	–	Active	–	–
O=c1c(O)c(-c2ccc(O)c(O)c2)oc2cc(O)cc(O)c12 [QUERCETIN]	Dose-dependent effect	Non-toxic	3.8 (≈ 12.6 µM)	–	–	Active	–	–	–
